Experimental data taken from PMC5218480 (PLoS ONE, 2017).

System: MV-4-11 cells
Assay: Gene expression microarray analysis (Affymetrix PrimeView) and GSEA
Format: cell-based, human
Design: RFU PODN (11730768_x_at) / Fold change /veh PODN (11730768_x_at) / RFU LINC00158 (11744669_a_at) / Fold change /veh LINC00158 (11744669_a_at) / RFU DUSP10 (11751237_a_at) / Fold change /veh DUSP10 (11751237_a_at) / RFU ID3 (11757404_x_at) / Fold change /veh ID3 (11757404_x_at) / RFU PLEKHG5 (11737974_s_at) / Fold change /veh PLEKHG5 (11737974_s_at) / RFU LRRC4B (11730491_at) / Fold change /veh LRRC4B (11730491_at) / RFU GIMAP4 (11747438_a_at) / Fold change /veh GIMAP4 (11747438_a_at) / RFU KRT8 (11758183_x_at) / Fold change /veh KRT8 (11758183_x_at) / RFU CNN1 (11734310_a_at) / Fold change /veh CNN1 (11734310_a_at) / RFU VPS37D (11726825_at) / Fold change /veh VPS37D (11726825_at) / RFU C10orf10 (11716522_x_at) / Fold change /veh C10orf10 (11716522_x_at) / RFU KIR2DL2 /// KIR2DL4 /// KIR2DL5A /// KIR2DL5B /// KIR2DS1 /// KIR2DS2 /// KIR2DS3 /// KIR2DS4 /// KIR3DL3 /// KIR3DL3 /// KIR3DS1 (11738374_at) / Fold change /veh KIR2DL2 /// KIR2DL4 /// KIR2DL5A /// KIR2DL5B /// KIR2DS1 /// KIR2DS2 /// KIR2DS3 /// KIR2DS4 /// KIR3DL3 /// KIR3DL3 /// KIR3DS1 (11738374_at) / RFU C1QL1 (11718748_at) / Fold change /veh C1QL1 (11718748_at) / RFU TMPRSS4 (11747572_a_at) / Fold change /veh TMPRSS4 (11747572_a_at) / RFU HAMP (11756126_x_at) / Fold change /veh HAMP (11756126_x_at) / RFU RNFT2 (11725882_a_at) / Fold change /veh RNFT2 (11725882_a_at) / RFU NR4A2 (11747474_a_at) / Fold change /veh NR4A2 (11747474_a_at) / RFU ABCC12 (11746883_a_at) / Fold change /veh ABCC12 (11746883_a_at) / RFU TMEM136 (11760407_x_at) / Fold change /veh TMEM136 (11760407_x_at) / RFU CLDN22 /// WWC2 (11732394_at) / Fold change /veh CLDN22 /// WWC2 (11732394_at) / RFU HLA-DPB1 (11760878_x_at) / Fold change /veh HLA-DPB1 (11760878_x_at) / RFU SPINT1 (11716480_a_at) / Fold change /veh SPINT1 (11716480_a_at) / RFU GAP43 (11754022_s_at) / Fold change /veh GAP43 (11754022_s_at) / RFU A4GNT (11735810_at) / Fold change /veh A4GNT (11735810_at) / RFU PRB3 (11715151_x_at) / Fold change /veh PRB3 (11715151_x_at) / RFU TUBB4B (11761932_at) / Fold change /veh TUBB4B (11761932_at) / RFU CAPN14 (11732068_a_at) / Fold change /veh CAPN14 (11732068_a_at) / RFU TMCC2 (11721928_a_at) / Fold change /veh TMCC2 (11721928_a_at) / RFU IRGQ (11745062_a_at) / Fold change /veh IRGQ (11745062_a_at) / RFU FAM174B (11720279_a_at) / Fold change /veh FAM174B (11720279_a_at) / RFU TMPRSS4 (11748680_a_at) / Fold change /veh TMPRSS4 (11748680_a_at) / RFU FAM212B (11763350_a_at) / Fold change /veh FAM212B (11763350_a_at) / RFU PLEKHG5 (11743358_a_at) / Fold change /veh PLEKHG5 (11743358_a_at) / RFU ZSCAN30 (11745921_a_at) / Fold change /veh ZSCAN30 (11745921_a_at) / RFU CMKLR1 (11741424_a_at) / Fold change /veh CMKLR1 (11741424_a_at) / RFU LOC101060620 /// MAPK8IP1 (11723275_at) / Fold change /veh LOC101060620 /// MAPK8IP1 (11723275_at) / RFU SPTSSB (11747773_x_at) / Fold change /veh SPTSSB (11747773_x_at) / RFU PRSS12 (11739890_at) / Fold change /veh PRSS12 (11739890_at) / RFU BIN1 (11741810_x_at) / Fold change /veh BIN1 (11741810_x_at) / RFU WNT11 (11732464_a_at) / Fold change /veh WNT11 (11732464_a_at) / RFU C10orf10 (11716521_a_at) / Fold change /veh C10orf10 (11716521_a_at) / RFU C5orf56 (11738089_at) / Fold change /veh C5orf56 (11738089_at) / RFU CYB561 (11721691_x_at) / Fold change /veh CYB561 (11721691_x_at) / RFU ANKRD19P (11752326_a_at) / Fold change /veh ANKRD19P (11752326_a_at) / RFU OR2T12 /// OR2T33 /// OR2T8 (11738714_s_at) / Fold change /veh OR2T12 /// OR2T33 /// OR2T8 (11738714_s_at) / RFU VCAN (11748164_a_at) / Fold change /veh VCAN (11748164_a_at) / RFU JSRP1 (11732532_at) / Fold change /veh JSRP1 (11732532_at) / RFU KRTAP10-11 (11738290_x_at) / Fold change /veh KRTAP10-11 (11738290_x_at) / RFU MYO3A (11730013_a_at) / Fold change /veh MYO3A (11730013_a_at) / RFU EBF3 (11725865_a_at) / Fold change /veh EBF3 (11725865_a_at) / RFU CAMK2N1 (11719241_x_at) / Fold change /veh CAMK2N1 (11719241_x_at) / RFU C5orf56 (11738088_a_at) / Fold change /veh C5orf56 (11738088_a_at) / RFU OLFML3 (11715873_a_at) / Fold change /veh OLFML3 (11715873_a_at) / RFU LOC100653217 /// NTM (11731650_a_at) / Fold change /veh LOC100653217 /// NTM (11731650_a_at) / RFU MAPK11 (11762145_a_at) / Fold change /veh MAPK11 (11762145_a_at) / RFU FIZ1 (11724087_x_at) / Fold change /veh FIZ1 (11724087_x_at) / RFU OASL (11726364_x_at) / Fold change /veh OASL (11726364_x_at) / RFU SOX15 (11748057_x_at) / Fold change /veh SOX15 (11748057_x_at) / RFU CD79A (11719716_a_at) / Fold change /veh CD79A (11719716_a_at) / RFU HIST1H1D (11736915_at) / Fold change /veh HIST1H1D (11736915_at) / RFU CASKIN2 (11723855_a_at) / Fold change /veh CASKIN2 (11723855_a_at) / RFU LOC730098 (11760151_x_at) / Fold change /veh LOC730098 (11760151_x_at) / RFU OR4N2 (11742367_at) / Fold change /veh OR4N2 (11742367_at) / RFU PRRT2 (11749266_a_at) / Fold change /veh PRRT2 (11749266_a_at) / RFU SNX32 (11753110_a_at) / Fold change /veh SNX32 (11753110_a_at) / RFU CDHR5 (11726645_a_at) / Fold change /veh CDHR5 (11726645_a_at) / RFU RCAN1 (11760418_a_at) / Fold change /veh RCAN1 (11760418_a_at) / RFU FAM167A (11723789_a_at) / Fold change /veh FAM167A (11723789_a_at) / RFU FAM26E (11764081_at) / Fold change /veh FAM26E (11764081_at) / RFU ISYNA1 (11749810_s_at) / Fold change /veh ISYNA1 (11749810_s_at) / RFU ACY1 (11761880_at) / Fold change /veh ACY1 (11761880_at) / RFU 11764098_at / Fold change /veh 11764098_at / RFU SAMD14 (11745864_x_at) / Fold change /veh SAMD14 (11745864_x_at) / RFU NPB (11741838_a_at) / Fold change /veh NPB (11741838_a_at) / RFU TMPRSS6 (11731388_a_at) / Fold change /veh TMPRSS6 (11731388_a_at) / RFU KRTAP10-2 (11738614_at) / Fold change /veh KRTAP10-2 (11738614_at) / RFU ARHGAP8 /// PRR5-ARHGAP8 (11727945_x_at) / Fold change /veh ARHGAP8 /// PRR5-ARHGAP8 (11727945_x_at) / RFU KRTAP5-7 /// NADSYN1 (11734609_at) / Fold change /veh KRTAP5-7 /// NADSYN1 (11734609_at) / RFU RASL12 (11751679_a_at) / Fold change /veh RASL12 (11751679_a_at) / RFU CDKN2B (11736163_a_at) / Fold change /veh CDKN2B (11736163_a_at) / RFU PRF1 (11729649_at) / Fold change /veh PRF1 (11729649_at) / RFU, ZNF638 /// ZNF638-IT1 / Fold change vs veh, ZNF638 /// ZNF638-IT1 / RFU, PANK3 / Fold change vs veh, PANK3 / RFU, SH3YL1 / Fold change vs veh, SH3YL1 / RFU, ZEB2 / Fold change vs veh, ZEB2 / RFU, NRIP1 / Fold change vs veh, NRIP1 / RFU, PTTG1IP / Fold change vs veh, PTTG1IP / RFU, CAPN2 / Fold change vs veh, CAPN2 / RFU, MED14 / Fold change vs veh, MED14 / RFU, SNORA58 / Fold change vs veh, SNORA58 / RFU, C1orf63 / Fold change vs veh, C1orf63 / RFU, LRRFIP1 / Fold change vs veh, LRRFIP1 / RFU, NDUFAF7 / Fold change vs veh, NDUFAF7 / RFU, SLC12A2 / Fold change vs veh, SLC12A2 / RFU, IBTK / Fold change vs veh, IBTK / RFU, ESF1 / Fold change vs veh, ESF1 / Fold change vs veh, TMEM50B / RFU, TAOK1 / Fold change vs veh, TAOK1 / RFU, ACBD3 / Fold change vs veh, ACBD3 / RFU, TMA16 / Fold change vs veh, TMA16 / RFU, RWDD3 / Fold change vs veh, RWDD3 / RFU, BCAT1 / Fold change vs veh, BCAT1 / RFU, EDEM3 / Fold change vs veh, EDEM3 / RFU, TMEM33 / Fold change vs veh, TMEM33 / RFU, WDR75 / Fold change vs veh, WDR75 / RFU, AHCTF1 / Fold change vs veh, AHCTF1 / RFU, TFRC / Fold change vs veh, TFRC / RFU, ZDHHC17 / Fold change vs veh, ZDHHC17 / RFU, NOM1 / Fold change vs veh, NOM1 / RFU, ARL8B / Fold change vs veh, ARL8B / RFU, ZBTB11 / Fold change vs veh, ZBTB11 / RFU, TAMM41 / Fold change vs veh, TAMM41 / RFU, KIAA1704 /// LOC100996395 / Fold change vs veh, KIAA1704 /// LOC100996395 / RFU, ING1 / Fold change vs veh, ING1 / RFU, TRMT61B / Fold change vs veh, TRMT61B / RFU, FUBP3 / Fold change vs veh, FUBP3 / RFU, TP53 / Fold change vs veh, TP53 / RFU, TNKS2 / Fold change vs veh, TNKS2 / RFU, ZFP14 / Fold change vs veh, ZFP14 / RFU, ACTR2 / Fold change vs veh, ACTR2 / RFU, PPP3R1 / Fold change vs veh, PPP3R1 / RFU, PIK3R1 / Fold change vs veh, PIK3R1 / RFU, HNRNPA1 / Fold change vs veh, HNRNPA1 / RFU, RNF170 / Fold change vs veh, RNF170 / RFU, ZNF28 / Fold change vs veh, ZNF28 / RFU, RNGTT / Fold change vs veh, RNGTT / RFU, OGT / Fold change vs veh, OGT / RFU, BRD1 / Fold change vs veh, BRD1 / RFU, MARS / Fold change vs veh, MARS / RFU, ZNF655 / Fold change vs veh, ZNF655 / RFU, FAHD1 / Fold change vs veh, FAHD1 / RFU, BDP1 / Fold change vs veh, BDP1 / RFU, LRRCC1 / Fold change vs veh, LRRCC1 / RFU, ARID1A / Fold change vs veh, ARID1A / RFU, ZNF146 / Fold change vs veh, ZNF146 / RFU, ZNF330 / Fold change vs veh, ZNF330 / RFU, GPN3 / Fold change vs veh, GPN3 / RFU, C9orf123 / Fold change vs veh, C9orf123 / RFU, N4BP2L2 / Fold change vs veh, N4BP2L2 / RFU, ARFIP1 / Fold change vs veh, ARFIP1 / RFU, FAM179B / Fold change vs veh, FAM179B / RFU, BCL10 / Fold change vs veh, BCL10 / RFU, UHRF1BP1L / Fold change vs veh, UHRF1BP1L / RFU, BET1 / Fold change vs veh, BET1 / RFU, CNOT2 / Fold change vs veh, CNOT2 / RFU, ZNF268 / Fold change vs veh, ZNF268 / Fold change vs veh, ZNF507 / RFU, DGCR2 / Fold change vs veh, DGCR2 / RFU, WDSUB1 / Fold change vs veh, WDSUB1 / Fold change vs veh, HSP90B1 /// MIR3652 / RFU, ADSS / Fold change vs veh, ADSS / RFU, GK / Fold change vs veh, GK / RFU, ZNF148 / Fold change vs veh, ZNF148 / RFU, TAF9 / Fold change vs veh, TAF9 / RFU, SLC1A5 / Fold change vs veh, SLC1A5 / RFU, SLMO2 / Fold change vs veh, SLMO2 / RFU, ABCC4 / Fold change vs veh, ABCC4 / RFU, LOC101060439 /// RAP1B / Fold change vs veh, LOC101060439 /// RAP1B / RFU, RFX7 / Fold change vs veh, RFX7 / RFU, GTPBP10 / Fold change vs veh, GTPBP10 / RFU, CNEP1R1 / Fold change vs veh, CNEP1R1 / RFU, BIVM-ERCC5 /// ERCC5 / Fold change vs veh, BIVM-ERCC5 /// ERCC5 / RFU, ILF3 / Fold change vs veh, ILF3 / RFU 11762660_at / Fold change /veh 11762660_at / RFU VCAN (11757783_s_at) / Fold change /veh VCAN (11757783_s_at) / RFU DDX43 (11728927_at) / Fold change /veh DDX43 (11728927_at) / RFU KRT8 (11758188_x_at) / Fold change /veh KRT8 (11758188_x_at) / RFU NKD1 (11759106_at) / Fold change /veh NKD1 (11759106_at) / RFU SRD5A1 (11742802_a_at) / Fold change /veh SRD5A1 (11742802_a_at) / RFU TPSAB1 /// TPSB2 (11721975_s_at) / Fold change /veh TPSAB1 /// TPSB2 (11721975_s_at) / RFU GSTM3 (11746129_a_at) / Fold change /veh GSTM3 (11746129_a_at) / RFU IL23R (11737362_x_at) / Fold change /veh IL23R (11737362_x_at) / RFU TMEM51 (11727254_a_at) / Fold change /veh TMEM51 (11727254_a_at) / RFU PIWIL2 (11732686_x_at) / Fold change /veh PIWIL2 (11732686_x_at) / RFU ORM1 (11744905_x_at) / Fold change /veh ORM1 (11744905_x_at) / RFU CCDC152 (11743942_at) / Fold change /veh CCDC152 (11743942_at) / RFU ECM1 (11717891_a_at) / Fold change /veh ECM1 (11717891_a_at) / RFU IL23R (11748794_a_at) / Fold change /veh IL23R (11748794_a_at) / RFU TNFAIP8L3 (11732012_x_at) / Fold change /veh TNFAIP8L3 (11732012_x_at) / RFU MBOAT4 (11741988_at) / Fold change /veh MBOAT4 (11741988_at) / RFU 11764193_at / Fold change /veh 11764193_at / RFU TMEM53 (11763286_at) / Fold change /veh TMEM53 (11763286_at) / RFU MAGEB2 (11727129_at) / Fold change /veh MAGEB2 (11727129_at) / RFU TMEM200A (11744735_a_at) / Fold change /veh TMEM200A (11744735_a_at) / RFU CCDC152 (11751479_a_at) / Fold change /veh CCDC152 (11751479_a_at) / RFU FAM211A (11726209_a_at) / Fold change /veh FAM211A (11726209_a_at) / RFU RGS16 (11746705_a_at) / Fold change /veh RGS16 (11746705_a_at) / RFU VCAN (11755009_s_at) / Fold change /veh VCAN (11755009_s_at) / RFU RHOB (11743442_s_at) / Fold change /veh RHOB (11743442_s_at) / RFU RGS16 (11720943_a_at) / Fold change /veh RGS16 (11720943_a_at) / RFU RGS16 (11720944_at) / Fold change /veh RGS16 (11720944_at) / RFU, VPS4B / Fold change vs veh, VPS4B / RFU, CREB1 / Fold change vs veh, CREB1 / RFU, DNAJC13 / Fold change vs veh, DNAJC13 / RFU, GNAQ / Fold change vs veh, GNAQ / RFU, CDK5R1 / Fold change vs veh, CDK5R1 / RFU, ZRANB3 / Fold change vs veh, ZRANB3 / RFU, CUL4A / Fold change vs veh, CUL4A / RFU, CCNY / Fold change vs veh, CCNY / RFU, UFL1 / Fold change vs veh, UFL1 / RFU, COG3 / Fold change vs veh, COG3 / RFU, DIAPH2 / Fold change vs veh, DIAPH2 / RFU, SKA2 / Fold change vs veh, SKA2 / RFU, AFF3 / Fold change vs veh, AFF3 / RFU, LMF1 / Fold change vs veh, LMF1 / RFU, IPO11 / Fold change vs veh, IPO11 / RFU, DFFB / Fold change vs veh, DFFB / RFU, FOXP1 / Fold change vs veh, FOXP1 / RFU, CARD8 / Fold change vs veh, CARD8 / RFU, STRN3 / Fold change vs veh, STRN3 / RFU, ADK / Fold change vs veh, ADK / RFU, RASSF2 / Fold change vs veh, RASSF2 / RFU, WIPF1 / Fold change vs veh, WIPF1 / RFU, LARP1B / Fold change vs veh, LARP1B / RFU, RASA1 / Fold change vs veh, RASA1 / RFU, RB1 / Fold change vs veh, RB1 / RFU, PPFIA1 / Fold change vs veh, PPFIA1 / RFU, MAT2A / Fold change vs veh, MAT2A / RFU, CCT5 / Fold change vs veh, CCT5 / RFU, WDR92 / Fold change vs veh, WDR92 / RFU, CUX1 / Fold change vs veh, CUX1 / RFU, TTC7A / Fold change vs veh, TTC7A / RFU, TMEM135 / Fold change vs veh, TMEM135 / RFU, DEPTOR / Fold change vs veh, DEPTOR / RFU, CPM / Fold change vs veh, CPM / RFU, DNAJB6 / Fold change vs veh, DNAJB6 / RFU, CACNA2D3 / Fold change vs veh, CACNA2D3 / RFU, DTX4 / Fold change vs veh, DTX4 / RFU, TFCP2 / Fold change vs veh, TFCP2 / RFU, GMCL1 /// GMCL1P1 / Fold change vs veh, GMCL1 /// GMCL1P1 / RFU, AEBP2 / Fold change vs veh, AEBP2 / RFU, SNHG1 /// SNORD22 /// SNORD25 /// SNORD26 /// SNORD27 /// SNORD28 /// SNORD29 /// SNORD31 / Fold change vs veh, SNHG1 /// SNORD22 /// SNORD25 /// SNORD26 /// SNORD27 /// SNORD28 /// SNORD29 /// SNORD31 / Fold change (Aza/veh), C12orf56 (ProbeSet 11735607_a_at) / Fold change (ACY-1035/veh), C12orf56 (ProbeSet 11735607_a_at) / Fold change (Aza/veh), FGFR1OP (ProbeSet 11751329_s_at) / Fold change (ACY-1035/veh), FGFR1OP (ProbeSet 11751329_s_at) / Fold change (Aza/veh), VPS36 (ProbeSet 11739960_a_at) / Fold change (ACY-1035/veh), VPS36 (ProbeSet 11739960_a_at) / RFU SYPL1 (11715823_x_at) / Fold change /veh SYPL1 (11715823_x_at) / RFU IGFBP7 (11715501_s_at) / Fold change /veh IGFBP7 (11715501_s_at) / RFU REEP3 (11722064_at) / Fold change /veh REEP3 (11722064_at) / RFU IGLL1 (11728026_x_at) / Fold change /veh IGLL1 (11728026_x_at): dose or concentration left out as unconfirmed
Conditions: ProbeSet 11745260_x_at; LIST B

SMILES: Nc1ncn([C@@H]2O[C@H](CO)[C@@H](O)[C@H]2O)c(=O)n1 [azacitidine]
- Fold change vs veh, SLC12A2: 0.91
